As usually defined, the Tmax is the time at which the peak concentration occurs. A word on the AUC(0-inf): it is total exposure, with the tail of the curve extrapolated. For orientation: half-life means the time in which the quantity being followed falls by half. For orientation: clearance means the rate of elimination divided by the concentration.

Data set [1] is described as follows: Drug metabolism in rat hepatocyte assessed as mono-hydroxylation mediated metabolite formation by LC-MS/MS analysis. The settings on record: hepatocytes. The class given is ADME, cell-based.
The test system of data set [2] is Mus musculus. Put plainly: Protection against LPS-induced sepsis in C57BL/6 mouse model assessed as improvement in survival rate at 20 mg/kg, IG measured at 12 hrs. The class given is functional, organism-based.
The target of data set [3] is Serine/threonine-protein kinase RIO1 (Homo sapiens) (UniProt Q9BRS2). The data set is described as follows: Induction of RIOK1 degradation in human Caco-2 cells upto 10000 nM incubated for 12 hrs by Western blotting analysis. The class given is cell-based. On the technique in general: Immunoblotting shows a protein as a band on a membrane.
Data set [4] concerns Mus musculus. The data set is described as follows: Anti-inflammatory activity against LPS-induced acute […] injury C57BL/6 mouse model assessed as reduction in IL-6 level in BALF at 20 mg/kg, IG pretreated with compound for 12 hrs followed by LPS-induction and measured after 6 hrs by ELISA analysis. The class given is functional, organism-based. As to conditions: time 18.0 hrs. A general note: ELISA stands for enzyme-linked immunosorbent assay.

Data set [5] has as its system RAW264.7. Put plainly: Effect on IL-6 mRNA expression in LPS-induced mouse RAW264.7 cells at 1 uM pretreated with compound for 1 hr followed by LPS-induction and measured after 6 hrs by RT-PCR analysis. The settings on record: time 7.0 hrs. The data set is classed as functional, cell-based.
The test system of data set [6] is Mus musculus. Put plainly: Anti-inflammatory activity against LPS-induced acute […] injury C57BL/6 mouse model assessed as reduction in TNF-alpha level in BALF at 20 mg/kg, IG pretreated with compound for 12 hrs followed by LPS-induction and measured after 6 hrs by ELISA analysis. The class given is functional, organism-based. The settings on record: time 18.0 hrs.

In data set [7] the test system is Mus musculus. Put plainly: Anti-inflammatory activity in imiquimod-induced C57BL/6 mouse psoriasis model assessed as improvement in erythema score at 20 mg/kg, po administered twice daily measured for 6 days. The settings on record: time 6.0 day. The class given is functional, organism-based.
Data set [8] has as its system Mus musculus. The data set is described as follows: Anti-inflammatory activity in imiquimod-induced C57BL/6 mouse psoriasis model assessed as improvement in swelling at 20 mg/kg, po administered twice daily measured for 6 days. The data set is classed as functional, organism-based. As to conditions: time 6.0 day.
Data set [9] in a line: Tmax in Sprague-Dawley rat at 20 mg/kg, po by LC-MS/MS analysis. The class given is ADME, organism-based. As to conditions: in vivo.
Data set [10] can be described thus: AUC (0 to infinity) in Sprague-Dawley rat at 20 mg/kg, po by LC-MS/MS analysis. The data set is classed as ADME, organism-based. The settings on record: in vivo.
In data set [11] the target is T1, Protein cereblon/Interleukin-1 receptor-associated kinase 4 (Mus musculus) (UniProt Q8C7D2+Q8R4K2). The data set is described as follows: PROTAC activity at IRAK4/CRBN in mouse BaF3 cells assessed as reduction in IRAK4 level at 100 nM incubated for 12 hrs by Western blot analysis relative to control. The data set is classed as cell-based. The arrangement: scale not given: the % may be the effect or the level left.

Data set [12] is described as follows: Half life in Sprague-Dawley rat at 20 mg/kg, po by LC-MS/MS analysis. The data set is classed as ADME, organism-based. The settings on record: in vivo.
Data set [13] relates to RAW264.7. Put plainly: Protection against Escherichia coli-induced sepsis in mouse RAW264.7 cells assessed as reduction in IL-6 production at 1 uM pretreated with compound for 6 hrs followed by Escherichia coli-induction and measured after 6 hrs by ELISA analysis. The class given is functional, cell-based. The settings on record: time 12.0 hrs.
The test system of data set [14] is RAW264.7. Put plainly: Effect on IRAK4 mRNA level in mouse RAW264.7 cells by RT-qPCR analysis. The data set is classed as functional, cell-based.
Data set [15] concerns Mus musculus. Put plainly: Anti-inflammatory activity against LPS-induced acute […] injury C57BL/6 mouse model assessed as reduction in F4/80-positive macrophage in lung at 20 mg/kg, IG pretreated with compound for 12 hrs followed by LPS-induction and measured after 6 hrs by Immunohistochemical analysis. The class given is functional, organism-based. The settings on record: time 18.0 hrs.

The nature of data set [16]: Volume of distribution at steady state in Sprague-Dawley rat at 2 mg/kg, iv by LC-MS/MS analysis. The class given is ADME, organism-based. The settings on record: in vivo, read-out: Vdss.
A short description of data set [17]: Clearance in Sprague-Dawley rat at 2 mg/kg, iv by LC-MS/MS analysis. The settings on record: in vivo. The data set is classed as ADME, organism-based.
For data set [18], the system named is RAW264.7. Put plainly: Protection against Escherichia coli-induced sepsis in mouse RAW264.7 cells assessed as reduction in TNF-alpha level at 1 uM pretreated with compound for 6 hrs followed by Escherichia coli-induction and measured after 6 hrs by RT-PCR analysis. The data set is classed as functional, cell-based. As to conditions: time 12.0 hrs.
Data set [19] addresses Protein cereblon/Interleukin-1 receptor-associated kinase 4 (Homo sapiens, UniProt Q9NWZ3+Q96SW2). Put plainly: PROTAC activity at IRAK4/CRBN in human PBMC cells assessed as reduction in IRAK4 level at 100 nM incubated for 12 hrs by Western blot analysis. The class given is cell-based.
Data set [20] addresses T1, Protein cereblon/Interleukin-1 receptor-associated kinase 4 (Mus musculus). The data set is described as follows: PROTAC activity at IRAK4/CRBN in mouse RAW264.7 cells assessed as reduction in IRAK4 level at 200 nM incubated for 12 hrs by proteomic analysis. The data set is classed as cell-based.
For data set [21], the system named is Mus musculus. Put plainly: Anti-inflammatory activity in imiquimod-induced C57BL/6 mouse psoriasis model assessed as reduction in keratinocyte proliferation at 20 mg/kg, po administered twice daily measured for 6 days by H and E staining based analysis. The data set is classed as functional, organism-based. The settings on record: time 6.0 day.
Data set [22] can be described thus: AUC (0 to infinity) in Sprague-Dawley rat at 2 mg/kg, iv by LC-MS/MS analysis. The data set is classed as ADME, organism-based. As to conditions: in vivo.
Data set [23] in a line: Tmax in Sprague-Dawley rat at 2 mg/kg, iv by LC-MS/MS analysis. The class given is ADME, organism-based. The settings on record: in vivo.

Calls of active or inactive are those of the source. The rule behind the calls is not given here.

T1 sequence (Q8C7D2 whole entry, looked up): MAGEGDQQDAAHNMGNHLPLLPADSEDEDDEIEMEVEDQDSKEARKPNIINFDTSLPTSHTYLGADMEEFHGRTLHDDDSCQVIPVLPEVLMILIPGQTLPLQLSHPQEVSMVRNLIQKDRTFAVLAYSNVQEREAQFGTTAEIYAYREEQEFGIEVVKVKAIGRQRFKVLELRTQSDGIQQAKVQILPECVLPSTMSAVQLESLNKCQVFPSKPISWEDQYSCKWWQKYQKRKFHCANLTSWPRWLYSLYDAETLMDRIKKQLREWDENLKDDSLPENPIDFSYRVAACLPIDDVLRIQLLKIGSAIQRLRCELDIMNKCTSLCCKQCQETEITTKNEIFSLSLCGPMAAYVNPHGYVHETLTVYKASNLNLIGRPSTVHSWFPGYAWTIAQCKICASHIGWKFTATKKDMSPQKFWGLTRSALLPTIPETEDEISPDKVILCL
T1 sequence (Q8R4K2 whole entry, looked up): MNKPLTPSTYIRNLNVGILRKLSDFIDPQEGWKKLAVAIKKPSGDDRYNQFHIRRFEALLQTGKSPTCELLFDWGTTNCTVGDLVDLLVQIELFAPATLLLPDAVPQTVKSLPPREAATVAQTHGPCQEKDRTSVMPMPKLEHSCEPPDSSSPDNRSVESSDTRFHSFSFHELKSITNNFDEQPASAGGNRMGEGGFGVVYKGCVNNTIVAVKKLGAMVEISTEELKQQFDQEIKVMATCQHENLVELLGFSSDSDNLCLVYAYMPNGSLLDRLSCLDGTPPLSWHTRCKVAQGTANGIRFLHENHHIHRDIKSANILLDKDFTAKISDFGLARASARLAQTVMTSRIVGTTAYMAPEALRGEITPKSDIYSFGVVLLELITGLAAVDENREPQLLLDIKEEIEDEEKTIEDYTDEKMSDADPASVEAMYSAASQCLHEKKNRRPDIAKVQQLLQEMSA
Sequence of Protein cereblon/Interleukin-1 receptor-associated kinase 4 (Q96SW2 whole entry, looked up): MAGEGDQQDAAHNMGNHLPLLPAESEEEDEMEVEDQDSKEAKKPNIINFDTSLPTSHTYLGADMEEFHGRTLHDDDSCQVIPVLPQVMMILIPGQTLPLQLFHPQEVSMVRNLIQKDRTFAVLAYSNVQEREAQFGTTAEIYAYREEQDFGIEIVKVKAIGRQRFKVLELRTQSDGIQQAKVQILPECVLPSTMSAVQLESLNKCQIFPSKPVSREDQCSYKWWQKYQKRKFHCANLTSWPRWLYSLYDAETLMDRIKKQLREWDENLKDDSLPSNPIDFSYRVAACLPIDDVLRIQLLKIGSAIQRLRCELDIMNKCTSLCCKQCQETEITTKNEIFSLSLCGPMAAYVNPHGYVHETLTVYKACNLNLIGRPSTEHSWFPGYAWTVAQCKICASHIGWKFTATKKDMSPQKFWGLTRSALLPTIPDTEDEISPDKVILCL
Sequence of Protein cereblon/Interleukin-1 receptor-associated kinase 4 (Q9NWZ3 whole entry, looked up): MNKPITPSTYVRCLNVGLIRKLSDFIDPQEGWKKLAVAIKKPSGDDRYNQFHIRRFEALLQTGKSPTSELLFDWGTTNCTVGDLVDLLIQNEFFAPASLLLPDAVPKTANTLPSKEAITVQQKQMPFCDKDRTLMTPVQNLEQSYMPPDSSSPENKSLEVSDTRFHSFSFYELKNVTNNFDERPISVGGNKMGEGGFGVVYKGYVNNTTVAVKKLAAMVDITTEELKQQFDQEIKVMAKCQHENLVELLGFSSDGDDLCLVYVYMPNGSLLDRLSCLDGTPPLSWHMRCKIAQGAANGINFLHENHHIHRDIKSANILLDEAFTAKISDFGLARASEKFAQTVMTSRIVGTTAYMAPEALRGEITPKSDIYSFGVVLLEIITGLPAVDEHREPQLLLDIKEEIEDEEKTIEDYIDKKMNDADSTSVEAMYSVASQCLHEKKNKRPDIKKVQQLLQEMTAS
Sequence of Serine/threonine-protein kinase RIO1 (Homo sapiens) (Q9BRS2 whole entry): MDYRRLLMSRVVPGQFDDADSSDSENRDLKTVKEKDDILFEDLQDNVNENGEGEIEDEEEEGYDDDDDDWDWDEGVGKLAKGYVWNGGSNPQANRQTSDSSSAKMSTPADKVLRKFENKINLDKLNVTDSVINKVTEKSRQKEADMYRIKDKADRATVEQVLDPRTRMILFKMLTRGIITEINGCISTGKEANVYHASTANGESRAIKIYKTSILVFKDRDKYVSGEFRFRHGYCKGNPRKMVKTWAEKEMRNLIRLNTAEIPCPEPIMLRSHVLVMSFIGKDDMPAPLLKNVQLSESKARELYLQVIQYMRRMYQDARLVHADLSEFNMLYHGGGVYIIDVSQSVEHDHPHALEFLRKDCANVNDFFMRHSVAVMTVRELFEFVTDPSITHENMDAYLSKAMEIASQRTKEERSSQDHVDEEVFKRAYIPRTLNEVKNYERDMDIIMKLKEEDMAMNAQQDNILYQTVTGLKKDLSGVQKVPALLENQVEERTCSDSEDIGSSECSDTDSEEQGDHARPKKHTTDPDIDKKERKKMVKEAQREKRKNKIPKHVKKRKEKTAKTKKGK

For `COc1cc(N2CCN(C(=O)CCOCC#Cc3ccc4c(c3)C(=O)N(C3CCC(=O)NC3=O)C4=O)CC2)ccc1NC(=O)c1cccc(-c2ccn[nH]2)n1` (stereo not drawn), the Drug metabolism result in data set [1] is “Metabolite_Detected”. In addition, the outcome in the data set with Mus musculus [2], in the data set with Mus musculus [4], in the data set on RAW264.7 [5], with Mus musculus [6], in the data set with Mus musculus [7] and in the data set with Mus musculus [8] was Active. For the same compound, the outcome (in the data set on RAW264.7 [13]; with Mus musculus [15]; with RAW264.7 [18]; in data set [19]; in data set [20]; in the data set with Mus musculus [21]) was Active. The result (in data set [3]; with RAW264.7 [14]) was inactive. For the same compound, the Tmax in data set [9] was determined as 30 min; in data set [23] it was 4.98 min. Further, the AUC(0-inf) is 1080 ng·h/mL in data set [10] and 1330 ng·h/mL in data set [22]. Besides, the Activity in data set [11] is 15%. This compound also showed a half-life in data set [12] of 87.2 min. Further, in data set [16], the Vd was 0.584 L/kg. The compound also had a clearance in data set [17] of 25.6 mL/min/kg.

For the origin of these results see ChEMBL document CHEMBL5506038, “Discovery of LC-MI-3: A Potent and Orally Bioavailable Degrader of Interleukin-1 Receptor-Associated Kinase 4 for the Treatment of Inflammatory Diseases” (J Med Chem, 2024).
